Reference: patent publication US10118935B2, “Melampomagnolide B dimers” (priority 2014, dated 2018)

Experiments:
MALME-3M = experiment: NCI 60 cell line five dose, Melanoma; conditions: MAL1ME-3M
OVCAR-5 = experiment: NCI 60 cell line five dose, Ovarian Cancer
NCI/ADR-RES = experiment: NCI 60 cell line five dose, Ovarian Cancer; conditions: NCI/ADR-
CCRF-CEM = experiment: NCI 60 cell line five dose, Leukemia
SN12C = experiment: NCI 60 cell line five dose, Renal Cancer
HCT-15 = experiment: NCI 60 cell line five dose, Colon Cancer
MCF7 = experiment: NCI 60 cell line five dose, Breast Cancer
SK-MEL-28 = experiment: NCI 60 cell line five dose, Melanoma
PC-3 = experiment: NCI 60 cell line five dose, Prostate Cancer
SK-MEL-5 = experiment: NCI 60 cell line five dose, Melanoma
MDA-MB-468 = experiment: NCI 60 cell line five dose, Breast Cancer
MDA-MB-435 = experiment: NCI 60 cell line five dose, Melanoma

With C=C1C(=O)O[C@H]2[C@H]1CC/C(COC(=O)NCCCCNC(=O)OC/C1=C/CC[C@@]3(C)O[C@H]3[C@H]3OC(=O)C(=C)[C@@H]3CC1)=C\CC[C@@]1(C)O[C@@H]21 [JVM 3-54, bis(((1aR,7aS,10aS,10bS,E)-1a-Methyl-8-methylene-9-oxo-1a,2,3,6,7,7a,8,9,10a,10b-decahydrooxireno[2′,3′:9,10]cyclodeca[1,2-b]furan-5-yl)methyl)butane-1,4-diyldicarbamate] the GI50 (MALME-3M) was 0.452 µM, the TGI (MALME-3M) was 2.19 µM and the “Percent Growth” value (MALME-3M; Log10 Concentration −4.0) was −64%. The “Percent Growth” value (MALME-3M; Log10 Concentration −5.0) was −56%, the “Percent Growth” value (MALME-3M; Log10 Concentration −6.0) was 29% and the “Percent Growth” value (MALME-3M; Log10 Concentration −7.0) was 90%. For the same compound, the “Percent Growth” value (MALME-3M; Log10 Concentration −8.0) was 95%, the CC50 (MALME-3M; read-out: LC50) was 8.43 µM and the GI50 (OVCAR-5) was 1.75 µM. For the same compound, the TGI (OVCAR-5) was 3.69 µM, the “Percent Growth” value (OVCAR-5; Log10 Concentration −4.0) was −72% and the “Percent Growth” value (OVCAR-5; Log10 Concentration −5.0) was −67%. The “Percent Growth” value (OVCAR-5; Log10 Concentration −6.0) was 87%, the “Percent Growth” value (OVCAR-5; Log10 Concentration −7.0) was 92% and the “Percent Growth” value (OVCAR-5; Log10 Concentration −8.0) was 95%. For the same compound, the CC50 (OVCAR-5; read-out: LC50) was 7.79 µM, the GI50 (NCI/ADR-RES) was 37.7 µM and the “Percent Growth” value (NCI/ADR-RES; Log10 Concentration −4.0) was 23%. The “Percent Growth” value (NCI/ADR-RES; Log10 Concentration −5.0) was 86%, the “Percent Growth” value (NCI/ADR-RES; Log10 Concentration −6.0) was 99% and the “Percent Growth” value (NCI/ADR-RES; Log10 Concentration −7.0) was 90%. For the same compound, the “Percent Growth” value (NCI/ADR-RES; Log10 Concentration −8.0) was 94%, the CC50 (NCI/ADR-RES; read-out: LC50) was > 100 µM and the GI50 (CCRF-CEM) was 0.272 µM. The TGI (CCRF-CEM) was 0.845 µM, the “Percent Growth” value (CCRF-CEM; Log10 Concentration −4.0) was −50% and the “Percent Growth” value (CCRF-CEM; Log10 Concentration −5.0) was −46%. The “Percent Growth” value (CCRF-CEM; Log10 Concentration −6.0) was −7%, the “Percent Growth” value (CCRF-CEM; Log10 Concentration −7.0) was 94% and the “Percent Growth” value (CCRF-CEM; Log10 Concentration −8.0) was 98%. For the same compound, the CC50 (CCRF-CEM; read-out: LC50) was > 100 µM, the GI50 (SN12C) was 2.75 µM and the TGI (SN12C) was 10.1 µM. For the same compound, the “Percent Growth” value (SN12C; Log10 Concentration −4.0) was −84%, the “Percent Growth” value (SN12C; Log10 Concentration −6.0) was 89% and the “Percent Growth” value (SN12C; Log10 Concentration −7.0) was 101%. For the same compound, the “Percent Growth” value (SN12C; Log10 Concentration −8.0) was 100%, the CC50 (SN12C; read-out: LC50) was 39.5 µM and the GI50 (HCT-15) was 5.61 µM. For the same compound, the TGI (HCT-15) was 20.8 µM, the “Percent Growth” value (HCT-15; Log10 Concentration −4.0) was 79% and the “Percent Growth” value (HCT-15; Log10 Concentration −5.0) was 37%. For the same compound, the “Percent Growth” value (HCT-15; Log10 Concentration −6.0) was 90%, the “Percent Growth” value (HCT-15; Log10 Concentration −7.0) was 94% and the “Percent Growth” value (HCT-15; Log10 Concentration −8.0) was 96%. For the same compound, the CC50 (HCT-15; read-out: LC50) was 56.3 µM, the TGI (MCF7) was 1.8 µM and the “Percent Growth” value (MCF7; Log10 Concentration −4.0) was −42%. For the same compound, the “Percent Growth” value (MCF7; Log10 Concentration −5.0) was −69%, the “Percent Growth” value (MCF7; Log10 Concentration −6.0) was 24% and the “Percent Growth” value (MCF7; Log10 Concentration −7.0) was 87%. For the same compound, the “Percent Growth” value (MCF7; Log10 Concentration −8.0) was 92%, the GI50 (SK-MEL-28) was 0.529 µM and the TGI (SK-MEL-28) was 2.3 µM. The “Percent Growth” value (SK-MEL-28; Log10 Concentration −4.0) was −73%, the “Percent Growth” value (SK-MEL-28; Log10 Concentration −5.0) was −58% and the “Percent Growth” value (SK-MEL-28; Log10 Concentration −6.0) was 33%. The “Percent Growth” value (SK-MEL-28; Log10 Concentration −7.0) was 94%, the “Percent Growth” value (SK-MEL-28; Log10 Concentration −8.0) was 100% and the CC50 (SK-MEL-28; read-out: LC50) was 8.08 µM. The GI50 (PC-3) was 2.55 µM, the TGI (PC-3) was 8.05 µM and the “Percent Growth” value (PC-3; Log10 Concentration −4.0) was −93%. The “Percent Growth” value (PC-3; Log10 Concentration −5.0) was −9%, the “Percent Growth” value (PC-3; Log10 Concentration −6.0) was 91% and the “Percent Growth” value (PC-3; Log10 Concentration −7.0) was 99%. For the same compound, the “Percent Growth” value (PC-3; Log10 Concentration −8.0) was 99%, the CC50 (PC-3; read-out: LC50) was 30.5 µM and the GI50 (SK-MEL-5) was 3.33 µM. The TGI (SK-MEL-5) was 11.8 µM, the “Percent Growth” value (SK-MEL-5; Log10 Concentration −4.0) was −85% and the “Percent Growth” value (SK-MEL-5; Log10 Concentration −5.0) was 7%. The “Percent Growth” value (SK-MEL-5; Log10 Concentration −6.0) was 98%, the “Percent Growth” value (SK-MEL-5; Log10 Concentration −7.0) was 100% and the “Percent Growth” value (SK-MEL-5; Log10 Concentration −8.0) was 97%. For the same compound, the CC50 (SK-MEL-5; read-out: LC50, SK-MEL-6) was 41.4 µM, the GI50 (MDA-MB-468) was 0.426 µM and the TGI (MDA-MB-468) was 2 µM. The “Percent Growth” value (MDA-MB-468; Log10 Concentration −4.0) was −69%, the “Percent Growth” value (MDA-MB-468; Log10 Concentration −5.0) was −59% and the “Percent Growth” value (MDA-MB-468; Log10 Concentration −6.0) was 26%. For the same compound, the “Percent Growth” value (MDA-MB-468; Log10 Concentration −7.0) was 91%, the “Percent Growth” value (MDA-MB-468; Log10 Concentration −8.0) was 92% and the CC50 (MDA-MB-468; read-out: LC50) was 7.76 µM. For the same compound, the GI50 (MDA-MB-435) was 1.24 µM, the TGI (MDA-MB-435) was 3.41 µM and the “Percent Growth” value (MDA-MB-435; Log10 Concentration −4.0) was −97%. The “Percent Growth” value (MDA-MB-435; Log10 Concentration −5.0) was −53% and the “Percent Growth” value (MDA-MB-435; Log10 Concentration −6.0) was 60%.
